In ChEMBL document CHEMBL3525928 (Drug Metab Dispos, 2011) one finds uptake ratio data, which are given here for two molecules.

What all share (assay type): ADME, cell-based
Data set [1] addresses T1, OATP1B3 (Homo sapiens, UniProt Q9NPD5).
T1 sequence (Q9NPD5 whole entry): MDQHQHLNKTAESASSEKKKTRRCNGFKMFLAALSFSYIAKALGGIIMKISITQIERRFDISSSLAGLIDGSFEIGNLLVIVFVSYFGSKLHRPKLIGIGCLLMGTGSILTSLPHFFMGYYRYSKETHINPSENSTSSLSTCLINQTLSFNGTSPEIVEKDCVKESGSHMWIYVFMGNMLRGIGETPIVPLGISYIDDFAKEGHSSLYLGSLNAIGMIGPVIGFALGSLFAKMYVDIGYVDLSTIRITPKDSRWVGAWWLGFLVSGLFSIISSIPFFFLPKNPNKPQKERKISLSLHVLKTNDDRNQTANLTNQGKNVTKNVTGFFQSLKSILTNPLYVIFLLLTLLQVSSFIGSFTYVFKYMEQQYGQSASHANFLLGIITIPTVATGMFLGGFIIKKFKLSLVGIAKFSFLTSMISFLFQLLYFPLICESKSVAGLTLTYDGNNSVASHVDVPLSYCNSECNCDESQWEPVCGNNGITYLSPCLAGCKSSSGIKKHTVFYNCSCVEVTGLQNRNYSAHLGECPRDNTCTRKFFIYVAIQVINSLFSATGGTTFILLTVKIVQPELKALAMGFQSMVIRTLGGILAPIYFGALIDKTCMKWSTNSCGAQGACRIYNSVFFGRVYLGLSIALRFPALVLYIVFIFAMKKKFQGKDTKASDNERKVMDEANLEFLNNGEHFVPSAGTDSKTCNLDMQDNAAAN
The data set is described as follows: Drug uptake ratio assessed as enzyme-mediated uptake in HEK293 cells expressing human OATP1B3 at 1 uM at 37 degC for 3 mins by liquid scintillation spectroscopy relative to wild type.

For data set [2], the target named is T1, OATP1B3. Nature of the data set: Drug uptake ratio assessed as enzyme-mediated uptake in HEK293 cells expressing human OATP1B3 at 10 uM at 37 degC for 3 mins by liquid scintillation spectroscopy relative to wild type.
The target in data set [3] is T1, OATP1B3. The data set is described as follows: Drug uptake ratio assessed as enzyme-mediated uptake in HEK293 cells expressing human OATP1B3 at 1 uM at 37 degC for 3 mins cells pretreated with sodium butyrate by liquid scintillation spectroscopy relative to wild type.
Data set [4] concerns the target T1, OATP1B3. The data set is described as follows: Drug uptake ratio assessed as enzyme-mediated uptake in HEK293 cells expressing human OATP1B3 at 10 uM at 37 degC for 3 mins cells pretreated with sodium butyrate by liquid scintillation spectroscopy relative to wild type.
The target of data set [5] is T2, OATP1B1 (Homo sapiens, UniProt Q9Y6L6).
T2 sequence (Q9Y6L6 whole entry): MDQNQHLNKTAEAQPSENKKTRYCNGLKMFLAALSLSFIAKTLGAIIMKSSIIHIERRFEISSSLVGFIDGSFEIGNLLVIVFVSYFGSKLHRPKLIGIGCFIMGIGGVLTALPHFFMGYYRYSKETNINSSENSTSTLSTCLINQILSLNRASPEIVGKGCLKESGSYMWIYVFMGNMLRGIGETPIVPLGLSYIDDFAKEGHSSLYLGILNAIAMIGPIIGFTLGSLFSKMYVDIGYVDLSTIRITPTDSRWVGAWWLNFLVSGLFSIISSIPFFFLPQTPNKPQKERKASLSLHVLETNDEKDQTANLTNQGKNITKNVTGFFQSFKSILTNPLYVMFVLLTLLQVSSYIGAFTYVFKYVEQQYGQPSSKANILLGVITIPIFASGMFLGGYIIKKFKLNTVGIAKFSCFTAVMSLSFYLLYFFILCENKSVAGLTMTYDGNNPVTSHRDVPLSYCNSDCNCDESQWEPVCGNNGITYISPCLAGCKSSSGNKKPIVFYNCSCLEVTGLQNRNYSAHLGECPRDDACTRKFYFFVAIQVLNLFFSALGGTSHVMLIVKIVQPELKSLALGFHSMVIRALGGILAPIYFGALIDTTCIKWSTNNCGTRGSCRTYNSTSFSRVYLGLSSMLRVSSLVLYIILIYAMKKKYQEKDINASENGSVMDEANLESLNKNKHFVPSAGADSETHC
The data set is described as follows: Drug uptake ratio assessed as enzyme-mediated uptake in HEK293 cells expressing human OATP1B1 at 10 uM at 37 degC for 3 mins by liquid scintillation spectroscopy relative to wild type.

Data set [6] concerns the target T3, OATP2B1 (Homo sapiens, UniProt O94956).
T3 sequence (O94956 whole entry): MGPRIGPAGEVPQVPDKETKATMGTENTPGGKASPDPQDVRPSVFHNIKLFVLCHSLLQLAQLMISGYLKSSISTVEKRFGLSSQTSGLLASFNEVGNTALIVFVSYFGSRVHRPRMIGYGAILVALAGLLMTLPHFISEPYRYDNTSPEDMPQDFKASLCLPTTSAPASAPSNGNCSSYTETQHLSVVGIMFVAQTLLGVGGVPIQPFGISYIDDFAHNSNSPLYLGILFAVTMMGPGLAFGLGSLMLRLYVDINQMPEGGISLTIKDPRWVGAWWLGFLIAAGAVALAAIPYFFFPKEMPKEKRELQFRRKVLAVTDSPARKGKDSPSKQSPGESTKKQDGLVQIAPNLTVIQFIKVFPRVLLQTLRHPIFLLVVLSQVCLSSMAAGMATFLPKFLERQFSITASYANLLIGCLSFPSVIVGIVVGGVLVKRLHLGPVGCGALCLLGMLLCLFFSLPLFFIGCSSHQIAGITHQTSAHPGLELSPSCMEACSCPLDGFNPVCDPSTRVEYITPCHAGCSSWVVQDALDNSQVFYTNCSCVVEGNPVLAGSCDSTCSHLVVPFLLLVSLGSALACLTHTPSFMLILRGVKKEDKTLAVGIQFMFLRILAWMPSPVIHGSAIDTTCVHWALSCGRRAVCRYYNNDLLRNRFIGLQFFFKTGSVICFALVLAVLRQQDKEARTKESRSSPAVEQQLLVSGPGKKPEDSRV
Nature of the data set: Drug uptake ratio assessed as enzyme-mediated uptake in HEK293 cells expressing human OATP2B1 at 10 uM at 37 degC for 3 mins by liquid scintillation spectroscopy relative to wild type.

Data set [7] addresses T3, OATP2B1. Nature of the data set: Drug uptake ratio assessed as enzyme-mediated uptake in HEK293 cells expressing human OATP2B1 at 1 uM at 37 degC for 3 mins by liquid scintillation spectroscopy relative to wild type.
In data set [8] the target is T2, OATP1B1. The data set is described as follows: Drug uptake ratio assessed as enzyme-mediated uptake in HEK293 cells expressing human OATP1B1 at 1 uM at 37 degC for 3 mins by liquid scintillation spectroscopy relative to wild type.

In the case of `C[C@]12CC[C@@H]3c4ccc(O)cc4CC[C@H]3[C@@H]1CC[C@@H]2O[C@@H]1O[C@H](C(=O)O)[C@@H](O)[C@H](O)[C@H]1O` [ESTRADIOL 17B GLUCURONIDE], the uptake ratio at 0.05 h, 1 µM was 87 on OATP1B3 [1] and 74 at OATP1B3 [3]. Besides, the uptake ratio at 0.05 h, 10 µM at OATP1B3 [2] turned out to be 116; at OATP1B3 [4] it was 78.
In the case of `C[C@]12CC[C@@H]3c4ccc(OS(=O)(=O)O)cc4CC[C@H]3[C@@H]1CCC2=O` [ESTRONE SULFURIC ACID], the uptake ratio at 0.05 h, 10 µM on OATP1B1 [5] stood at 2.2; on OATP2B1 [6], 50. In addition, the uptake ratio at 0.05 h, 1 µM on OATP2B1 [7] was found to be 44; at OATP1B1 [8], 6.7.
